The values below come from patent US20070218531A1, “Micro-Organism and a Method of Producing Paclitaxel by the Use of the Same” (HAIYI BIOTECH PTE LTD, priority 2004, published 2007).

This experiment deals with breast cancer cells. Kind of experiment: In vitro bioactivity analysis: killing of cancer cells by minimal MTT method. Type of experiment: cell-based. Conditions: culture medium RPMI-1640 containing 2% calf serum, compared with paclitaxel standard sample. From the text:
FIG. 10 is the chart of the effects of paclitaxel sample made by the method of present invention and standard paclitaxel sample on the killing percentage against […] cells by minimal MTT method by the use of culture medium RPMI-1640 containing 2% calf serum.
In vitro bioactivity analysis of the fermented paclitaxel show high efficacy on killing breast cancer cells.

For the compound `CC(=O)O[C@H]1C(=O)[C@@]2(C)[C@H]([C@H](OC(=O)c3ccccc3)[C@]3(O)C[C@H](OC(=O)[C@H](O)[C@@H](NC(=O)c4ccccc4)c4ccccc4)C(C)=C1C3(C)C)[C@]1(OC(C)=O)CO[C@@H]1C[C@@H]2O` [fermented paclitaxel, 5β, 20-epoxy-1,2α,4,7β 10β 13α-hexahydroxy-tax-11-en-9-one-4,10-diacetate-2-benzoate-13-ester with (2R, 3S)-N-benzoyl-3-phenyl isoserine], the “efficacy on killing breast cancer cells (killing percentage, FIG. 10)” value was “high efficacy”. Moreover, the “efficacy on killing breast cancer cells (killing percentage, FIG. 10)” value (listed as paclitaxel from Examples 20-24) is “same effects as paclitaxel standard samples”.
